Laboratory results: PubChem BioAssay (NCI)
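Cells were grown in 96-well plates and exposed to each compound for 48 hours at five concentrations; endpoints were interpolated linearly between bracketing concentrations, or set to the highest concentration if not reached. The concentration for full growth arrest is given as TGI.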

Assays:
Assay in all cases: NCI tumour cell line growth inhibition, 48 h
786-0 renal = tested on: 786-0 renal
A498 renal = tested on: A498 renal
A549 NSCLC = tested on: A549 NSCLC
ACHN renal = tested on: ACHN renal
CAKI-1 renal = tested on: CAKI-1 renal
CCRF-CEM leukemia = tested on: CCRF-CEM leukemia
COLO 205 colon = tested on: COLO 205 colon
DLD-1 colon = tested on: DLD-1 colon
DMS 114 small cell lung = tested on: DMS 114 small cell lung
DMS 273 small cell lung = tested on: DMS 273 small cell lung
EKVX NSCLC = tested on: EKVX NSCLC
HCC-2998 colon = tested on: HCC-2998 colon
HCT-116 colon = tested on: HCT-116 colon
HCT-15 colon = tested on: HCT-15 colon
HOP-18 NSCLC = tested on: HOP-18 NSCLC
HOP-62 NSCLC = tested on: HOP-62 NSCLC
HOP-92 NSCLC = tested on: HOP-92 NSCLC
HT29 colon = tested on: HT29 colon
IGROV1 ovarian = tested on: IGROV1 ovarian
K-562 leukemia = tested on: K-562 leukemia
KM12 colon = tested on: KM12 colon
KM20L2 colon = tested on: KM20L2 colon
LOX IMVI melanoma = tested on: LOX IMVI melanoma
LXFL 529 NSCLC = tested on: LXFL 529 NSCLC
M14 melanoma = tested on: M14 melanoma
M19-MEL melanoma = tested on: M19-MEL melanoma
MALME-3M melanoma = tested on: MALME-3M melanoma
NCI-H226 lung = tested on: NCI-H226 lung
NCI-H23 lung = tested on: NCI-H23 lung
NCI-H460 lung = tested on: NCI-H460 lung
NCI-H522 lung = tested on: NCI-H522 lung
OVCAR-3 ovarian = tested on: OVCAR-3 ovarian
OVCAR-4 ovarian = tested on: OVCAR-4 ovarian
OVCAR-5 ovarian = tested on: OVCAR-5 ovarian
OVCAR-8 ovarian = tested on: OVCAR-8 ovarian
RPMI-8226 leukemia = tested on: RPMI-8226 leukemia
RXF 393 renal = tested on: RXF 393 renal
SF-268 CNS = tested on: SF-268 CNS
SF-295 CNS = tested on: SF-295 CNS
SF-539 CNS = tested on: SF-539 CNS
SK-MEL-2 melanoma = tested on: SK-MEL-2 melanoma
SK-MEL-28 melanoma = tested on: SK-MEL-28 melanoma
SK-MEL-5 melanoma = tested on: SK-MEL-5 melanoma
SK-OV-3 ovarian = tested on: SK-OV-3 ovarian
SNB-19 CNS = tested on: SNB-19 CNS
SNB-75 CNS = tested on: SNB-75 CNS
SNB-78 CNS = tested on: SNB-78 CNS
SW-620 colon = tested on: SW-620 colon
TK-10 renal = tested on: TK-10 renal
U251 CNS = tested on: U251 CNS
UACC-257 melanoma = tested on: UACC-257 melanoma
UACC-62 melanoma = tested on: UACC-62 melanoma
UO-31 renal = tested on: UO-31 renal
XF 498 CNS = tested on: XF 498 CNS
HL-60(TB) leukemia = tested on: HL-60(TB) leukemia
MOLT-4 leukemia = tested on: MOLT-4 leukemia
SN12C renal = tested on: SN12C renal
SR leukemia = tested on: SR leukemia

**Q.** Which results are given for `Cc1c(CCO)c(=O)n2c([nH]c3ccccc32)c1C#N`?
**A.** TGI (786-0 renal): > 100 µM; TGI (A498 renal): > 100 µM; TGI (A549 NSCLC): > 100 µM; TGI (ACHN renal): > 100 µM; TGI (CAKI-1 renal): > 100 µM; TGI (CCRF-CEM leukemia): > 100 µM; TGI (COLO 205 colon): > 100 µM; TGI (DLD-1 colon): > 100 µM; TGI (DMS 114 small cell lung): > 100 µM; TGI (DMS 273 small cell lung): > 100 µM; TGI (EKVX NSCLC): > 100 µM; TGI (HCC-2998 colon): > 100 µM; TGI (HCT-116 colon): > 100 µM; TGI (HCT-15 colon): > 100 µM; TGI (HOP-18 NSCLC): > 100 µM; TGI (HOP-62 NSCLC): > 100 µM; TGI (HOP-92 NSCLC): > 100 µM; TGI (HT29 colon): > 100 µM; TGI (IGROV1 ovarian): > 100 µM; TGI (K-562 leukemia): > 100 µM; TGI (KM12 colon): > 100 µM; TGI (KM20L2 colon): > 100 µM; TGI (LOX IMVI melanoma): > 100 µM; TGI (LXFL 529 NSCLC): > 100 µM; TGI (M14 melanoma): > 100 µM; TGI (M19-MEL melanoma): > 100 µM; TGI (MALME-3M melanoma): > 100 µM; TGI (NCI-H226 lung): > 100 µM; TGI (NCI-H23 lung): > 100 µM; TGI (NCI-H460 lung): 98.8 µM; TGI (NCI-H522 lung): > 100 µM; TGI (OVCAR-3 ovarian): > 100 µM; TGI (OVCAR-4 ovarian): > 100 µM; TGI (OVCAR-5 ovarian): > 100 µM; TGI (OVCAR-8 ovarian): > 100 µM; TGI (RPMI-8226 leukemia): > 100 µM; TGI (RXF 393 renal): > 100 µM; TGI (SF-268 CNS): > 100 µM; TGI (SF-295 CNS): > 100 µM; TGI (SF-539 CNS): > 100 µM; TGI (SK-MEL-2 melanoma): > 100 µM; TGI (SK-MEL-28 melanoma): > 100 µM; TGI (SK-MEL-5 melanoma): > 100 µM; TGI (SK-OV-3 ovarian): > 100 µM; TGI (SNB-19 CNS): 91.8 µM; TGI (SNB-75 CNS): > 100 µM; TGI (SNB-78 CNS): > 100 µM; TGI (SW-620 colon): > 100 µM; TGI (TK-10 renal): > 100 µM; TGI (U251 CNS): > 100 µM; TGI (UACC-257 melanoma): > 100 µM; TGI (UACC-62 melanoma): > 100 µM; TGI (UO-31 renal): > 100 µM; TGI (XF 498 CNS): > 100 µM

**Q.** Which TGI (786-0 renal) does the source give for `CC1(C)O[C@@H](CCl)C[C@H](C#N)O1` here?
**A.** Its TGI is over 100 µM.

**Q.** And the TGI (A498 renal)?
**A.** Its TGI is over 100 µM.

**Q.** And the TGI (A549 NSCLC)?
**A.** Its TGI is over 100 µM.

**Q.** What about the TGI (ACHN renal) of the same molecule?
**A.** Its TGI is over 100 µM.

**Q.** And the TGI (CAKI-1 renal)?
**A.** Its TGI is over 100 µM.

**Q.** What about the TGI (CCRF-CEM leukemia) of the same molecule?
**A.** The TGI was over 100 µM.

**Q.** What about the TGI (COLO 205 colon) of the same molecule?
**A.** Its TGI is over 100 µM.

**Q.** What about the TGI (DLD-1 colon) of the same molecule?
**A.** The TGI was over 100 µM.

**Q.** And the TGI (DMS 114 small cell lung)?
**A.** The TGI was over 100 µM.

**Q.** What about the TGI (DMS 273 small cell lung) of the same molecule?
**A.** The TGI was over 100 µM.

**Q.** And the TGI (EKVX NSCLC)?
**A.** Its TGI is over 100 µM.

**Q.** And the TGI (HCC-2998 colon)?
**A.** Its TGI is over 100 µM.

**Q.** And the TGI (HCT-116 colon)?
**A.** The TGI was over 100 µM.

**Q.** And the TGI (HCT-15 colon)?
**A.** The TGI was over 100 µM.

**Q.** And the TGI (HL-60(TB) leukemia)?
**A.** Its TGI is over 100 µM.

**Q.** And the TGI (HOP-18 NSCLC)?
**A.** Its TGI is over 100 µM.

**Q.** And the TGI (HOP-62 NSCLC)?
**A.** The TGI was over 100 µM.

**Q.** And the TGI (HOP-92 NSCLC)?
**A.** The TGI was over 100 µM.

**Q.** What about the TGI (HT29 colon) of the same molecule?
**A.** The TGI was over 100 µM.

**Q.** What about the TGI (IGROV1 ovarian) of the same molecule?
**A.** Its TGI is over 100 µM.

**Q.** What about the TGI (K-562 leukemia) of the same molecule?
**A.** Its TGI is over 100 µM.

**Q.** What about the TGI (KM12 colon) of the same molecule?
**A.** Its TGI is over 100 µM.

**Q.** And the TGI (KM20L2 colon)?
**A.** Its TGI is over 100 µM.

**Q.** What about the TGI (LOX IMVI melanoma) of the same molecule?
**A.** The TGI was over 100 µM.

**Q.** And the TGI (M14 melanoma)?
**A.** Its TGI is over 100 µM.

**Q.** What about the TGI (M19-MEL melanoma) of the same molecule?
**A.** Its TGI is over 100 µM.

**Q.** And the TGI (MALME-3M melanoma)?
**A.** The TGI was over 100 µM.

**Q.** What about the TGI (MOLT-4 leukemia) of the same molecule?
**A.** Its TGI is over 100 µM.

**Q.** And the TGI (NCI-H226 lung)?
**A.** Its TGI is over 100 µM.

**Q.** What about the TGI (NCI-H23 lung) of the same molecule?
**A.** Its TGI is over 100 µM.

**Q.** And the TGI (NCI-H460 lung)?
**A.** Its TGI is over 100 µM.

**Q.** What about the TGI (NCI-H522 lung) of the same molecule?
**A.** Its TGI is over 100 µM.

**Q.** What about the TGI (OVCAR-3 ovarian) of the same molecule?
**A.** The TGI was over 100 µM.

**Q.** What about the TGI (OVCAR-4 ovarian) of the same molecule?
**A.** Its TGI is over 100 µM.

**Q.** And the TGI (OVCAR-5 ovarian)?
**A.** The TGI was over 100 µM.

**Q.** And the TGI (OVCAR-8 ovarian)?
**A.** The TGI was over 100 µM.

**Q.** And the TGI (RPMI-8226 leukemia)?
**A.** The TGI was over 100 µM.

**Q.** And the TGI (RXF 393 renal)?
**A.** Its TGI is over 100 µM.

**Q.** And the TGI (SF-268 CNS)?
**A.** The TGI was over 100 µM.

**Q.** What about the TGI (SF-295 CNS) of the same molecule?
**A.** Its TGI is over 100 µM.

**Q.** What about the TGI (SF-539 CNS) of the same molecule?
**A.** Its TGI is over 100 µM.

**Q.** And the TGI (SK-MEL-2 melanoma)?
**A.** Its TGI is over 100 µM.

**Q.** What about the TGI (SK-MEL-28 melanoma) of the same molecule?
**A.** Its TGI is over 100 µM.

**Q.** What about the TGI (SK-MEL-5 melanoma) of the same molecule?
**A.** Its TGI is over 100 µM.

**Q.** And the TGI (SK-OV-3 ovarian)?
**A.** Its TGI is over 100 µM.

**Q.** And the TGI (SN12C renal)?
**A.** The TGI was over 100 µM.

**Q.** What about the TGI (SNB-19 CNS) of the same molecule?
**A.** The TGI was over 100 µM.

**Q.** And the TGI (SNB-75 CNS)?
**A.** Its TGI is over 100 µM.

**Q.** And the TGI (SNB-78 CNS)?
**A.** The TGI was over 100 µM.

**Q.** What about the TGI (SR leukemia) of the same molecule?
**A.** Its TGI is over 100 µM.

**Q.** And the TGI (SW-620 colon)?
**A.** The TGI was over 100 µM.

**Q.** And the TGI (TK-10 renal)?
**A.** The TGI was over 100 µM.

**Q.** What about the TGI (U251 CNS) of the same molecule?
**A.** Its TGI is over 100 µM.

**Q.** What about the TGI (UACC-257 melanoma) of the same molecule?
**A.** Its TGI is over 100 µM.

**Q.** What about the TGI (UACC-62 melanoma) of the same molecule?
**A.** Its TGI is over 100 µM.

**Q.** What about the TGI (UO-31 renal) of the same molecule?
**A.** The TGI was over 100 µM.

**Q.** What about the TGI (XF 498 CNS) of the same molecule?
**A.** Its TGI is over 100 µM.
